Where a name gives a salt, the structure may show the parent alone.
Key:
[1] = target: T1, human α5β3γ2L GABAA receptors in HEK293 cells (Homo sapiens, UniProt P18507+P31644); test: In vitro electrophysiological recording assay (α5-GABAAR relative efficacy), SyncroPatch; assay type: cell-based; settings: GABA EC10-20
T1 construct: expressed in transfected cells
Description: Mouse L(tk^−) cells stably expressing human α1β3γ2, α2β3γ2, α3β3γ2, α5β3γ2 GABAARs generated by transfection of the individual subunits in the dexamethasone-inducible expression vector pMSGneo in mouse L(tk^−) cells (Hadingham et al., 1993, Mol. Pharmacol. 43:970-975 and 1993, Mol. Pharmacol. 44:1211-1218) were used for binding and functional assays. For certain compounds, HEK293 cells stable expressing the human α1β3γ2L, α2β3γ2L, α3β3γ2L and α5β3γ2L GABAA receptors were used to evaluate their functional effects in a SyncroPatch electrophysiology assay.
The efficacy of modulators was evaluated using either the automated patch-clamp platform QPatch16 (Sophion, Copenhagen, Denmark) or the SyncroPatch 384i (Nanion Technologies, Germany). Cells were harvested from flasks by enzymatic dissociation and re-suspended in serum-free medium.
For the Syncropatch recordings, a stacked addition protocol was used, in which GABA was rapidly applied and then washed off from the cell. All experiments were carried out at room temperature (20-22° C.) using a standard whole cell procedure. The currents recorded were acquired at 2 kHz and filtered using a Bessel filter. Whole-cell currents were measured at a holding potential of −80 mV.
For Syncropatch recordings, the extracellular recording solution contained: 140 mM NaCl, 4 mM KCl, 2 mM CaCl2), 1 mM MgCl2, 10 mM HEPES, 5 mM glucose (pH 7.4 and osmolarity of c. 300-310 mOsm/L). The intracellular recording solution contained: 90 mM KCl, 50 mM KF, 1.5 mM MgCl2, 11.1 mM EGTA and 10 mM HEPES (pH 7.2 and osmolarity of c. 300 mOsm/L). 2 mM of NaATP was added to the intracellular solution on the day of testing.
The effects of modulators were evaluated in the presence of a submaximal GABA concentration, giving typically 10-20% activation (GABA EC10-20) of the response elicited by a saturating GABA concentration. For QPatch recordings, to check and ensure baseline current stability before compound addition, five consecutive applications of GABA EC10-20 alone (each application with a 2 s duration, separated by minimum 1 min wash off periods) were performed before compound addition. The test compound was applied using the pipetting system of the QPatch system 1 min at least prior to co-application with GABA EC10-20. For SyncroPatch recordings, GABA EC20 alone was applied three times (1 s long applications, with wash steps in-between) before compound addition. This was followed by a 1-2 min pre-incubation with the test compound and then re-application of GABA EC10-20 in the presence of the compound. Finally, following a further wash step, a saturating concentration of GABA was applied, allowing the accurate evaluation for each cell of the percentage baseline activation elicited by the submaximal GABA applied.
The compounds were first dissolved in DMSO as a 10 mM stock and then further diluted to the testing concentrations so that the final DMSO concentration in the extracellular recording solution was kept constant at 0.1% for the QPatch recordings, or 0.2% for the SyncroPatch recordings.
The % efficacy of modulators was determined from the GABA elicited currents recorded in the presence and absence of the test compound, using the formula:
[((compound peak current−leak)−(GABA peak current−leak))/(GABA peak current−leak)]*100,
where ‘leak’ is the leak baseline current at −65 mV, ‘compound peak current’ is the current elicited by co-application of compound and GABA, and ‘GABA peak current’ is the current elicited by GABA alone during the 5th GABA application. The results were presented as ‘relative efficacy’ for each compound generally at a concentration equal or higher than 100 times their determined Ki. The relative efficacy of a compound was calculated by normalising its efficacy to the efficacy of methyl-6,7-dimethoxy-4-ethyl-beta-carboline-3-carboxylate (DMCM) that was separately determined produced an attenuation of GABA-induced currents of −57±4%, n=5.

[2] = target: T2, human α5β3γ2 GABAARs in mouse L(tk−) cells (Homo sapiens, UniProt P18507+P31644); test: In vitro electrophysiological recording assay (α5-GABAAR relative efficacy), QPatch; assay type: cell-based; settings: GABA EC10-20
T2 construct: expressed in transfected cells; host or cells: mouse L(tk−) cells, dexamethasone-inducible vector pMSGneo
Procedure, shortened: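 Whole-cell QPatch recordings at 20-22° C, −65 mV holding, in dexamethasone-induced (1 μM, 24 h) L(tk−) cells. Compound pre-applied ≥1 min, then co-applied with GABA EC10-20; percentage change in leak-corrected peak current, taken at ≥100× Ki, normalised to DMCM efficacy; 0.1% DMSO final.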

[3] = target: T3, human recombinant GABAAR containing α5β3γ2 subunits (benzodiazepine site) (Homo sapiens, UniProt P18507+P31644); test: In vitro radioligand binding assay (α5-GABAAR Ki); settings: inhibition of [3H]Ro15-1788 binding, membranes of L(tk−) cells expressing human α5β3γ2; read-out: α5-GABAAR Ki
T3 construct: expressed in transfected cells; host or cells: mouse L(tk−) cells, dexamethasone-inducible vector pMSGneo
Procedure, shortened: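 Membranes from mouse L(tk^−) cells stably expressing human α5β3γ2 GABAAR incubated 1 h at 4° C with 4 nM [^3H]Ro15-1788 and test compound; nonspecific binding with 1 μM TP003. Filter-bound radioactivity counted; Ki from IC50 by Cheng-Prusoff using measured Kd.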

T1 sequence (P31644 32-462): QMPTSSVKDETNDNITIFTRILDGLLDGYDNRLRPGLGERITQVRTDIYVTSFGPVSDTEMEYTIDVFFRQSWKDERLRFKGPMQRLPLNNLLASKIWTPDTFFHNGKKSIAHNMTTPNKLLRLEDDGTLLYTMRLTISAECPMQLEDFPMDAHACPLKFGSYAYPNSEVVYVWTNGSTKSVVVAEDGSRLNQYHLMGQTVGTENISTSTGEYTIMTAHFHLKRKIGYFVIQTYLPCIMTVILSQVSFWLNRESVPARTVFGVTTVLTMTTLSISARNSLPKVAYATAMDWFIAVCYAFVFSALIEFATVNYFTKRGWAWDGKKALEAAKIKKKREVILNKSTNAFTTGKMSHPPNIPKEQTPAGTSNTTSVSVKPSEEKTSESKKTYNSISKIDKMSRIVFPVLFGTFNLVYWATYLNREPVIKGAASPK
T1 sequence (P28472 26-473 partner): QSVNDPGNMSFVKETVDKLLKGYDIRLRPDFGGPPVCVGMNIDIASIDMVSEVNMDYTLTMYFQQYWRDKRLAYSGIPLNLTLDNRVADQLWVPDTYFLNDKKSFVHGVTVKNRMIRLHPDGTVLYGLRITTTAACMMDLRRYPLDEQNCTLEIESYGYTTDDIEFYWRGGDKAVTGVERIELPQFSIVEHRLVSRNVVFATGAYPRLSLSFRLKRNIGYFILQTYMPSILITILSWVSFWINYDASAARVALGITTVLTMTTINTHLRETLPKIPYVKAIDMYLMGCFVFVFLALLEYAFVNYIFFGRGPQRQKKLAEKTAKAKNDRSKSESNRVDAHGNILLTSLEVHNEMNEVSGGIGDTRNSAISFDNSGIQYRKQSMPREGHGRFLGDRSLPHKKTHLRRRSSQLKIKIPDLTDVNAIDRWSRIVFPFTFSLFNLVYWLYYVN
T1 sequence (P18507 40-475): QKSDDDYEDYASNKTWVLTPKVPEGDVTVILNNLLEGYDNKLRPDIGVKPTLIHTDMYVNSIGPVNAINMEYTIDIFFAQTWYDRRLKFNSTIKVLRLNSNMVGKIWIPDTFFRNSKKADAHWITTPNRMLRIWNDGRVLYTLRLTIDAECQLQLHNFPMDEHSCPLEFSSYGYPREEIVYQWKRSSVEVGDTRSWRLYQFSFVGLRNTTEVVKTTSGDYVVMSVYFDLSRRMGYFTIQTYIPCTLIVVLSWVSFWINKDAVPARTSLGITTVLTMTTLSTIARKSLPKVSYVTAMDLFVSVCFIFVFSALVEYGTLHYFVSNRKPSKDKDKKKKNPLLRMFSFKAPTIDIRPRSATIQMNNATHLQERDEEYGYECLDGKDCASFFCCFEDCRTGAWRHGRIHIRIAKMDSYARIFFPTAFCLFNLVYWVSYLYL
T2 sequence (P31644 32-462): as the sequence (P31644 32-462) above
T2 sequence (P28472 26-473 partner): as the sequence (P28472 26-473 partner) above
T2 sequence (P18507 40-475): as the sequence (P18507 40-475) above
T3 sequence (P31644 32-462): as the sequence (P31644 32-462) above
T3 sequence (P28472 26-473 partner): as the sequence (P28472 26-473 partner) above
T3 sequence (P18507 40-475): as the sequence (P18507 40-475) above

Compound | α5-GABAAR Relative Efficacy (to DMCM), SyncroPatch ([1]; Conc 0.1 μM) | α5-GABAAR Relative Efficacy (to DMCM), Qpatch ([2]; Conc 0.3 μM) | Ki [3] [nM] | α5-GABAAR Relative Efficacy (to DMCM), Qpatch ([2]; Conc 0.1 μM) | α5-GABAAR Relative Efficacy (to DMCM), Qpatch ([2]; Conc 1 μM) | α5-GABAAR Relative Efficacy (to DMCM), Qpatch ([2]; Conc 3 μM) | α5-GABAAR Relative Efficacy (to DMCM), SyncroPatch ([1]; Conc 0.03 μM)
COc1nc(-c2cnc(CN)nc2)cnc1NC(=O)c1c(-c2ccccc2)noc1C.Cl [Example 156, N-[5-[2-(Aminomethyl)pyrimidin-5-yl]-3-methoxy-pyrazin-2-yl]-5-methyl-3-phenyl-isoxazole-4-carboxamide hydrochloride] | −0.65 | −0.91 | 2.7 |  |  |  | 
COc1nc(-c2ccn3nc(N)nc3c2)ccc1NC(=O)c1c(C)nnn1-c1ccccc1 [Example 159, N-(6-(2-Amino-[1,2,4]triazolo[1,5-a]pyridin-7-yl)-2-methoxypyridin-3-yl)-4-methyl-1-phenyl-1H-1,2,3-triazole-5-carboxamide] | −0.81 |  | 9.2 |  | −0.82 |  | 
COc1nc(-c2cnc3n2CCN(C(C)=O)C3)ccc1NC(=O)c1c(-c2ccccc2)noc1C [Example 143, N-(6-(7-Acetyl-5,6,7,8-tetrahydroimidazo[1,2-a]pyrazin-3-yl)-2-methoxypyridin-3-yl)-5-methyl-3-phenylisoxazole-4-carboxamide] | −0.72 |  | 0.4 | −0.80 |  |  | 
COc1nc(-c2cnc(CN(C)C)nc2)ccc1NC(=O)c1c(-c2ccccc2)noc1C [Example 74, N-[6-[2-[(Dimethylamino)methyl]pyrimidin-5-yl]-2-methoxy-3-pyridyl]-5-methyl-3-phenyl-isoxazole-4-carboxamide] | −0.62 | −1.00 | 2.1 |  |  |  | 
COc1nc(-c2nnc3n2CCNC3)ccc1NC(=O)c1c(-c2ccccc2)noc1C [Example 196, N-(2-Methoxy-6-(5,6,7,8-tetrahydro-[1,2,4]triazolo[4,3-a]pyrazin-3-yl)pyridin-3-yl)-5-methyl-3-phenylisoxazole-4-carboxamide dihydrochloride] | −0.68 |  | 23.5 |  |  | −0.71 | 
CNc1ncc(-c2ccc(NC(=O)c3c(-c4ccccc4)noc3C)c(OC)n2)cn1 [Example 47, N-[2-Methoxy-6-[2-(methylamino)pyrimidin-5-yl]-3-pyridyl]-5-methyl-3-phenyl-isoxazole-4-carboxamide] | −1.00 |  | 0.8 | −0.81 |  |  | 
COc1nc(-c2ccc(N)nc2)ccc1NC(=O)c1c(-c2ccc(F)cc2)noc1C [Example 222, N-(6′-amino-6-methoxy-[2,3′-bipyridin]-5-yl)-3-(4-fluorophenyl)-5-methylisoxazole-4-carboxamide] | −0.78 |  | 0.5 |  |  |  | 
COc1nc(-c2cnc(N)nc2)ncc1NC(=O)c1c(-c2ccccc2)noc1C [Example 223, N-(2′-amino-4-methoxy-[2,5′-bipyrimidin]-5-yl)-5-methyl-3-phenylisoxazole-4-carboxamide] | −1.06 |  | 1.3 |  |  |  | 

Further lines, results first:

α5-GABAAR Relative Efficacy (to DMCM), SyncroPatch ([1]; Conc 0.1 μM) | α5-GABAAR Relative Efficacy (to DMCM), Qpatch ([2]; Conc 0.3 μM) | Ki [3] [nM] | α5-GABAAR Relative Efficacy (to DMCM), Qpatch ([2]; Conc 0.1 μM) | α5-GABAAR Relative Efficacy (to DMCM), Qpatch ([2]; Conc 1 μM) | α5-GABAAR Relative Efficacy (to DMCM), Qpatch ([2]; Conc 3 μM) | α5-GABAAR Relative Efficacy (to DMCM), SyncroPatch ([1]; Conc 0.03 μM) | Compound
−0.90 |  | 0.5 | −0.76 |  |  |  | COc1nc(-c2cnc(N)nc2)ccc1NC(=O)c1c(-c2ccccc2)noc1C [Example 43, N-[6-(2-Aminopyrimidin-5-yl)-2-methoxy-3-pyridyl]-5-methyl-3-phenyl-isoxazole-4-carboxamide]
−0.57 |  | 21.8 |  |  | −0.72 |  | COc1nc(-c2ccc(N)nn2)ccc1NC(=O)c1c(-c2ccccc2)noc1C [Example 127, N-[6-(6-Aminopyridazin-3-yl)-2-methoxy-3-pyridyl]-5-methyl-3-phenyl-isoxazole-4-carboxamide]
−0.94 | −0.92 | 1.7 |  |  |  |  | COc1nc(-c2cnc(N3CCC(O)CC3)nc2)ccc1NC(=O)c1c(-c2ccccc2)noc1C [Example 85, N-(6-(2-(4-Hydroxypiperidin-1-yl)pyrimidin-5-yl)-2-methoxypyridin-3-yl)-5-methyl-3-phenylisoxazole-4-carboxamide]
−1.14 |  | 0.6 | −0.94 |  |  |  | COc1nc(-c2cnc(N)nc2)cnc1NC(=O)c1c(-c2ccccc2)noc1C [Example 67, N-[5-(2-Aminopyrimidin-5-yl)-3-methoxy-pyrazin-2-yl]-5-methyl-3-phenyl-isoxazole-4-carboxamide]
−0.68 |  | 1.3 |  |  |  |  | COc1nc(-c2ccc(CN3CC4COCC(C4)C3)cc2)ccc1NC(=O)c1c(-c2ccccc2)noc1C [Example 228, N-[2-methoxy-6-[4-(3-oxa-7-azabicyclo[3.3.1]nonan-7-ylmethyl)phenyl]-3-pyridyl]-5-methyl-3-phenyl-isoxazole-4-carboxamide]
 |  | 4.4 |  |  |  | −0.45 | COc1nc(-c2ccc(CO)cc2)ccc1NC(=O)c1c(-c2ccccc2)noc1C [Example 219, N-[6-[4-(hydroxymethyl)phenyl]-2-methoxy-3-pyridyl]-5-methyl-3-phenyl-isoxazole-4-carboxamide]
−0.85 |  | 0.4 |  |  |  |  | COc1nc(-c2cnc(N)nc2)ccc1NC(=O)c1c(-c2ccc(F)cc2)noc1C [Example 213, N-[6-(2-Aminopyrimidin-5-yl)-2-methoxy-3-pyridyl]-3-(4-fluorophenyl)-5-methyl-isoxazole-4-carboxamide]
−1.05 |  | 1.9 |  |  |  |  | COc1nc(-c2cnc(CN3CCOCC3)nc2)ccc1NC(=O)c1c(-c2ccccc2)noc1C [Example 181, N-[2-Methoxy-6-[2-(morpholinomethyl)pyrimidin-5-yl]-3-pyridyl]-5-methyl-3-phenyl-isoxazole-4-carboxamide]
